In test [1] the test system is E. cloacae 144200 expressing Class C P99 AmpC. Nature of the test: Broth microdilution MIC assay, partner ceftazidime.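 Further: ceftazidime held fixed at 4 µg/mL.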 The following applies: Enterobacter cloacae, read-out: MIC of Exemplary Compounds in presence of fixed β-lactams, Fixed CAZ, E. cl. 144200 p99 AmpC. It counts as cell-based. For orientation: In broth dilution the organism is exposed to a series of concentrations in liquid medium.

For another test, the target named is T1, VIM-2 (Escherichia coli, UniProt Q5U7L7).
T1 construct: made in house; host or cells: E. coli BL21(DE3)
Nature of the test: β-Lactamase enzyme inhibition assay, VIM-2 (nitrocefin substrate). The format is biochemical. The protocol:
For Vim-2 metallo β-lactamase, the procedure was identical with the following exceptions, first the protein was not pH adjusted to pH 5 with 50 mM sodium acetate, second, the chromatography step was changed to a 5 ml Q sepharose anion exchange column pre-equilibrated with 50 mM Hepes pH 7.5, and elution of the protein was achieved by a linear gradient of NaCl (0-600 mM). Finally, the VIM-2 purification required a second run (3rd step) on the Q sepharose anion exchange column to achieve acceptable purity (>90%).
An equal volume of diluted enzyme stock was added, and the plates were incubated at 37° C. for 15 min. Nitrocefin was used as substrate for p99 AmpC, VIM-2 and OXA-1 and dispensed into each well at a final concentration of 100 μM. Absorbance at 486 nm was immediately monitored for 10 min using a Biotek Powerwave XS2 microplate spectrophotometer using the GEN5 softweare package (Biotek Instruments, Winooski Vt.). In an analogous fashion, imipenem was used as substrate for Kpc-2 and Cefotaxime was used for SHV-5, while changes in absorbance upon hydrolysis of the β-lactam ring were monitored at 300 nm and 260 nm respectively in UV-transparent 96-well microtiter assay plates. Maximum rates of hydrolysis were compared to those in control wells (without inhibitors), and percentages of enzyme inhibition were calculated for each concentration of inhibitor. The concentration of inhibitor needed to reduce the initial rate of hydrolysis of substrate by 50% (IC50) was calculated as the residual activity of β-lactamase at 486 nm using GraFit version 7 kinetics software package (Erithacus Software, Surrey, UK).
Using the methodology described above, examples of the current invention were evaluated for their ability to inhibit β-lactamase enzymes from all four Ambler classifications (A through D). […] NT=Not tested.

In test [2] the test system is E. coli ESBL4 expressing CTX-M-15. The test can be described thus: Broth microdilution MIC assay, partner ceftazidime.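 Further: ceftazidime held fixed at 4 µg/mL.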 The format is cell-based. The following applies: Escherichia coli, read-out: MIC of Exemplary Compounds in presence of fixed β-lactams, Fixed CAZ, E. coli ESBL4 CTX-M-15.
Test [3] concerns P. aeruginosa Ps296 expressing VIM-2. The test can be described thus: Broth microdilution MIC assay, partner meropenem. The format is cell-based. The following applies: Pseudomonas aeruginosa, read-out: MIC of Exemplary Compounds in presence of fixed β-lactams, Fixed Mero, P. aerug. Ps296 VIM-2.
Test [4] relates to K. pneumoniae 156319 expressing KPC-3. Nature of the test: Broth microdilution MIC assay, partner meropenem. The format is cell-based. The following applies: Klebsiella pneumoniae, read-out: MIC of Exemplary Compounds in presence of fixed β-lactams, Fixed Mero, K.P. 156319 KPC-3.
In test [5] the test system is K. pneumoniae A-1797 expressing KPC-2 and VIM-4. The test can be described thus: Broth microdilution MIC assay, partner meropenem. It counts as cell-based. The following applies: Klebsiella pneumoniae, read-out: MIC of Exemplary Compounds in presence of fixed β-lactams, Fixed Mero, K.P. A-1797 KPC-2 VIM-4.
In test [6] the test system is S. aureus MSSA-7 producing penicillinase PC-1. The test can be described thus: Broth microdilution MIC assay, partner piperacillin. The following applies: Staphylococcus aureus, read-out: MIC of Exemplary Compounds in presence of fixed β-lactams, Fixed Pip, S. aureus MSSA-7 PC-1. The format is cell-based.
[7] abbreviates: nitrocefin substrate 100 μM, 15 min preincubation at 37° C., read-out: IC50, Class B VIM-2.

Like-named read-outs stand apart in the source and are kept apart here. Some results are limits rather than exact numbers.

Usually MIC stands for the smallest concentration in the dilution series that meets the test's criterion for growth inhibition. In general, IC50 refers to the concentration needed to halve the response being measured. As for `O=C(O)c1cccc2c1OB(O)[C@@H](NC(=O)C1(c3ccccc3)CC1)C2` [Example 1, (R)-2-hydroxy-3-(1-phenylcyclopropanecarboxamido)-3,4-dihydro-2H-benzo[e][1,2]oxaborinine-8-carboxylic acid], the MIC in test [1] was less than 4 µg/mL; in test [2] it was less than 4 µg/mL; in test [3], 8 to 32 µg/mL; in test [4] it was 8 to 32 µg/mL. Further, the IC50 at VIM-2 (setting [7]) lay within 100 to 1000 nM.

For `O=C(O)c1cccc2c1OB(O)[C@@H](NC(=O)C(F)(F)c1ccccc1)C2` [Example 2, (R)-3-(2,2-difluoro-2-phenylacetamido)-2-hydroxy-3,4-dihydro-2H-benzo[e][1,2]oxaborinine-8-carboxylic acid], the minimum inhibitory concentration (MIC) was less than 4 µg/mL in test [1]; less than 4 µg/mL in test [2]; more than 32 µg/mL in test [5]; 8 to 32 µg/mL in test [3]; less than 4 µg/mL in test [6] (fixed piperacillin 4 μg/mL); 8 to 32 µg/mL in test [4]. The half-maximal inhibitory concentration (IC50) at VIM-2 (setting [7]) lay within 1000 to 10000 nM.

With `O=C(O)c1cccc2c1OB(O)[C@@H](NC(=O)C1(c3ccccc3)CCNCC1)C2` [Example 3, (R)-2-hydroxy-3-(4-phenylpiperidine-4-carboxamido)-3,4-dihydro-2H-benzo[e][1,2]oxaborinine-8-carboxylic acid], the minimal inhibitory concentration (MIC) in test [1] is less than 4 µg/mL; in test [2], less than 4 µg/mL; in test [5], more than 32 µg/mL; in test [3] it was 8 to 32 µg/mL; in test [6], more than 32 µg/mL; in test [4] it was less than 4 µg/mL. The compound further came in with a half-inhibitory concentration (IC50) at VIM-2 of 1000 to 10000 nM.

`O=C(N[C@H]1Cc2cccc(C(=O)O)c2OB1O)c1csc2c1CCNC2` [Example 4, (R)-2-hydroxy-3-(4,5,6,7-tetrahydrothieno[2,3-c]pyridine-3-carboxamido)-3,4-dihydro-2H-benzo[e][1,2]oxaborinine-8-carboxylic acid]: the MIC is less than 4 µg/mL in test [1]; less than 4 µg/mL in test [2]; less than 4 µg/mL in test [5]; more than 32 µg/mL in test [3]; less than 4 µg/mL in test [6] (fixed piperacillin 4 μg/mL); less than 4 µg/mL in test [4]. The concentration for half-maximal inhibition (IC50) on VIM-2 (setting [7]) was 100 to 1000 nM.

On to `O=C(N[C@H]1Cc2cccc(C(=O)O)c2OB1O)c1ccc2c(c1)CCNC2` [Example 5, (R)-3-(2-borono-2-(1,2,3,4-tetrahydroisoquinoline-6-carboxamido)ethyl)-2-hydroxybenzoic acid], for which the MIC in test [1] was less than 4 µg/mL; in test [2], less than 4 µg/mL; in test [5], less than 4 µg/mL; in test [3] it was more than 32 µg/mL; in test [6] (fixed piperacillin 4 μg/mL), less than 4 µg/mL; in test [4], less than 4 µg/mL. Moreover, on VIM-2 (setting [7]), the IC50 was 100 to 1000 nM.

Regarding `CN1CCc2c(C(=O)N[C@H]3Cc4cccc(C(=O)O)c4OB3O)csc2C1` [Example 6, (R)-2-hydroxy-3-(6-methyl-4,5,6,7-tetrahydrothieno[2,3-c]pyridine-3-carboxamido)-3,4-dihydro-2H-benzo[e][1,2]oxaborinine-8-carboxylic acid], the MIC is less than 4 µg/mL in test [1]; less than 4 µg/mL in test [2]; 8 to 32 µg/mL in test [5]; more than 32 µg/mL in test [3]; less than 4 µg/mL in test [6] (fixed piperacillin 4 μg/mL); less than 4 µg/mL in test [4]. Moreover, the IC50 on VIM-2 (setting [7]) was in the range of 1000 to 10000 nM.

For the compound `CN1CCc2cc(C(=O)N[C@H]3Cc4cccc(C(=O)O)c4OB3O)ccc2C1` [Example 7, (R)-2-hydroxy-3-(2-methyl-1,2,3,4-tetrahydroisoquinoline-6-carboxamido)-3,4-dihydro-2H-benzo[e][1,2]oxaborinine-8-carboxylic acid], the MIC in test [1] is less than 4 µg/mL; in test [2], less than 4 µg/mL; in test [5], less than 4 µg/mL; in test [3], more than 32 µg/mL; in test [6] (fixed piperacillin 4 μg/mL), less than 4 µg/mL; in test [4], 8 to 32 µg/mL. Also, the IC50 on VIM-2 (setting [7]) fell in the range of 100 to 1000 nM.

With `O=C(O)c1cccc2c1OB(O)[C@@H](NC(=O)c1c[nH]c3ncccc13)C2` [Example 8, (R)-2-hydroxy-3-(1H-pyrrolo[2,3-b]pyridine-3-carboxamido)-3,4-dihydro-2H-benzo[e][1,2]oxaborinine-8-carboxylic acid], the minimum inhibitory concentration (MIC) in test [1] was less than 4 µg/mL; in test [2] it was less than 4 µg/mL; in test [5], more than 32 µg/mL; in test [3] it was less than 4 µg/mL; in test [6] (fixed piperacillin 4 μg/mL), less than 4 µg/mL; in test [4], more than 32 µg/mL. Further, the 50% inhibitory concentration (IC50) at VIM-2 (setting [7]) is 1000 to 10000 nM.

On to `O=C(N[C@H]1Cc2cccc(C(=O)O)c2OB1O)c1ccc2c(c1)CNC2` [Example 9, (R)-2-hydroxy-3-(isoindoline-5-carboxamido)-3,4-dihydro-2H-benzo[e][1,2]oxaborinine-8-carboxylic acid], for which the MIC in test [1], in test [2], in test [5], in test [3], in test [6] (fixed piperacillin 4 μg/mL) and in test [4] was less than 4 µg/mL throughout. Moreover, the half-maximal inhibitory concentration (IC50) at VIM-2 (setting [7]) is less than 100 nM.

`CN1Cc2ccc(C(=O)N[C@H]3Cc4cccc(C(=O)O)c4OB3O)cc2C1` [Example 10, (R)-2-hydroxy-3-(2-methylisoindoline-5-carboxamido)-3,4-dihydro-2H-benzo[e][1,2]oxaborinine-8-carboxylic acid]: the MIC in test [1] was less than 4 µg/mL; in test [2], less than 4 µg/mL; in test [5] it was less than 4 µg/mL; in test [3], 8 to 32 µg/mL; in test [6] (fixed piperacillin 4 μg/mL), less than 4 µg/mL; in test [4], less than 4 µg/mL. The IC50 at VIM-2 (setting [7]) is less than 100 nM.

Consider `NCCN1Cc2ccc(C(=O)N[C@H]3Cc4cccc(C(=O)O)c4OB3O)cc2C1` [Example 11, (R)-3-(2-(2-aminoethyl)isoindoline-5-carboxamido)-2-hydroxy-3,4-dihydro-2H-benzo[e][1,2]oxaborinine-8-carboxylic acid], for which the minimum inhibitory concentration (MIC) in test [1] was less than 4 µg/mL; in test [2] it was less than 4 µg/mL; in test [5] it was less than 4 µg/mL; in test [3] it was more than 32 µg/mL; in test [6] (fixed piperacillin 4 μg/mL) it was less than 4 µg/mL; in test [4] it was less than 4 µg/mL. In addition, the half-inhibitory concentration (IC50) at VIM-2 (setting [7]) is 100 to 1000 nM.

On to `O=C(N[C@H]1Cc2cccc(C(=O)O)c2OB1O)c1ccc2c(c1)CN(Cc1cccnc1)C2` [Example 12, (R)-2-hydroxy-3-(2-(pyridin-3-ylmethyl)isoindoline-5-carboxamido)-3,4-dihydro-2H-benzo[e][1,2]oxaborinine-8-carboxylic acid], for which the MIC in test [1] is less than 4 µg/mL; in test [2] it was 8 to 32 µg/mL; in test [5], 8 to 32 µg/mL; in test [3], more than 32 µg/mL; in test [6] (fixed piperacillin 4 μg/mL) it was less than 4 µg/mL; in test [4], 8 to 32 µg/mL. Also, on VIM-2 (setting [7]), the concentration for half-maximal inhibition (IC50) fell in the range of 100 to 1000 nM.

Take `O=C(Cc1cnc2c(c1)CCCN2)N[C@H]1Cc2cccc(C(=O)O)c2OB1O` [Example 13, (R)-2-hydroxy-3-(2-(5,6,7,8-tetrahydro-1,8-naphthyridin-3-yl)acetamido)-3,4-dihydro-2H-benzo[e][1,2]oxaborinine-8-carboxylic acid]: the minimum inhibitory concentration (MIC) was less than 4 µg/mL in test [1]; less than 4 µg/mL in test [2]; 8 to 32 µg/mL in test [5]; 8 to 32 µg/mL in test [3]; less than 4 µg/mL in test [6] (fixed piperacillin 4 μg/mL); less than 4 µg/mL in test [4]. Further, on VIM-2 (setting [7]), the IC50 was in the range of 1000 to 10000 nM.

Turning to `NCc1ccc(C(=O)N[C@H]2Cc3cccc(C(=O)O)c3OB2O)cc1CN` [Example 14, (R)-3-(3,4-bis(aminomethyl)benzamido)-2-hydroxy-3,4-dihydro-2H-benzo[e][1,2]oxaborinine-8-carboxylic acid], the MIC in test [1], in test [2], in test [5], in test [3], in test [6] (fixed piperacillin 4 μg/mL) and in test [4] was less than 4 µg/mL in each case. For the same compound, the IC50 on VIM-2 (setting [7]) was less than 100 nM.
